Source: ChEMBL document CHEMBL3352755, “Synthesis and influenza virus inhibitory activities of carbosilane dendrimers peripherally functionalized with hemagglutinin-binding Peptide” (J Med Chem, 2014)

Assays:
Influenza A virus = assay: Antiviral activity against Influenza A virus (A/Puerto Rico/8/34(H1N1)) infected in MDCK cells after 2 days using crystal violet staining by plaque assay; format: functional, organism-based; details: A/Puerto Rico/8/1934(H1N1), 48 h
[1] = Antiviral activity against Influenza A virus (A/Aichi/2/1968(H3N2)) infected in MDCK cells after 2 days using crystal violet staining by plaque assay; format: functional, cell-based; details: 48 h
MDCK [2] = assay: Cytotoxicity against MDCK cells at 10 times IC50 in antiviral assay after 2 days by WST-1 cell counting assay; format: cell-based, Canis lupus familiaris; details: dog, 48 h
[3] = Hemolytic activity in chicken erythrocytes at 30 to 40 uM after 24 hrs by spectrophotometry; format: ADME, cell-based, Gallus gallus; details: erythrocyte
[4] = Critical micelle concentration of the compound in PBS using N-phenyl-1-naphthylamine by fluorescence assay; format: ADME; details: buffer
MDCK [5] = assay: Cytotoxicity against MDCK cells at 200 uM after 2 days by WST-1 cell counting assay; format: cell-based, Canis lupus familiaris; details: dog, 48 h
[6] = Hemolytic activity in chicken erythrocytes at 48 uM after 24 hrs by spectrophotometry; format: ADME, cell-based, Gallus gallus, Erythrocyte; details: read-out: Activity
[7] = Hemolytic activity in chicken erythrocytes at 240 uM after 24 hrs by spectrophotometry; format: ADME, cell-based, Gallus gallus, Erythrocyte; details: read-out: Activity

## CC(C)C[C@H](NC(=O)[C@H](CCCNC(=N)N)NC(=O)[C@H](C)N)C(=O)N1CCC[C@H]1C(=O)N[C@@H](CCCNC(=N)N)C(=O)NCCC[Si](CCCNC(=O)[C@H](CCCNC(=N)N)NC(=O)[C@@H]1CCCN1C(=O)[C@H](CC(C)C)NC(=O)[C@H](CCCNC(=N)N)NC(=O)[C@H](C)N)(CCCNC(=O)[C@H](CCCNC(=N)N)NC(=O)[C@@H]1CCCN1C(=O)[C@H](CC(C)C)NC(=O)[C@H](CCCNC(=N)N)NC(=O)[C@H](C)N)c1ccccc1
Influenza A virus
  IC50: 12.6 µM
[1]
  IC50: 5.7 µM
MDCK [2]
  Activity: Non-toxic
[3]
  Activity: Non-toxic
[4]
  CMC: 3.9 µM

## CC(C)C[C@H](NC(=O)[C@H](CCCNC(=N)N)NC(=O)[C@H](C)N)C(=O)N1CCC[C@H]1C(=O)N[C@@H](CCCNC(=N)N)C(=O)NCCC[Si](CCCNC(=O)[C@H](CCCNC(=N)N)NC(=O)[C@@H]1CCCN1C(=O)[C@H](CC(C)C)NC(=O)[C@H](CCCNC(=N)N)NC(=O)[C@H](C)N)(CCCNC(=O)[C@H](CCCNC(=N)N)NC(=O)[C@@H]1CCCN1C(=O)[C@H](CC(C)C)NC(=O)[C@H](CCCNC(=N)N)NC(=O)[C@H](C)N)CCCNC(=O)[C@H](CCCNC(=N)N)NC(=O)[C@@H]1CCCN1C(=O)[C@H](CC(C)C)NC(=O)[C@H](CCCNC(=N)N)NC(=O)[C@H](C)N
Influenza A virus
  IC50: > 400 µM
[1]
  IC50: > 400 µM
MDCK [5]
  Activity: Non-toxic
[3]
  Activity: Non-toxic

## CC(C)C[C@H](NC(=O)[C@H](CCCNC(=N)N)NC(=O)[C@H](C)N)C(=O)N1CCC[C@H]1C(=O)N[C@@H](CCCNC(=N)N)C(=O)NCCC[Si](CCCNC(=O)[C@H](CCCNC(=N)N)NC(=O)[C@@H]1CCCN1C(=O)[C@H](CC(C)C)NC(=O)[C@H](CCCNC(=N)N)NC(=O)[C@H](C)N)(CCCNC(=O)[C@H](CCCNC(=N)N)NC(=O)[C@@H]1CCCN1C(=O)[C@H](CC(C)C)NC(=O)[C@H](CCCNC(=N)N)NC(=O)[C@H](C)N)CCC[Si](C)(C)CCC[Si](CCCNC(=O)[C@H](CCCNC(=N)N)NC(=O)[C@@H]1CCCN1C(=O)[C@H](CC(C)C)NC(=O)[C@H](CCCNC(=N)N)NC(=O)[C@H](C)N)(CCCNC(=O)[C@H](CCCNC(=N)N)NC(=O)[C@@H]1CCCN1C(=O)[C@H](CC(C)C)NC(=O)[C@H](CCCNC(=N)N)NC(=O)[C@H](C)N)CCCNC(=O)[C@H](CCCNC(=N)N)NC(=O)[C@@H]1CCCN1C(=O)[C@H](CC(C)C)NC(=O)[C@H](CCCNC(=N)N)NC(=O)[C@H](C)N
Influenza A virus
  IC50: 0.72 µM
[1]
  IC50: 0.6 µM
MDCK [2]
  Activity: Non-toxic
[6]
  hemolysis at 24 h, 48 µM: 46%
[7]
  hemolysis at 24 h, 240 µM: 85%
[4]
  CMC: 4 µM
